Melting point data for four compounds are collected here from patent US20040039001A1, “2-guanidino-4-aryl-quinazoline” (priority 2000, published 2004).

Molecules are shown by their SMILES. Structures can show the parent of a compound that is named as a salt.

By melting point is commonly meant the temperature of the solid-liquid transition. As for `Cl.N=C(N)Nc1nc(-c2ccccc2)c2c(O)cccc2n1`, the melting point was determined as 310 °C. For `CN=C(NC)Nc1nc(-c2ccccc2)c2cc(Cl)ccc2n1.Cl`, the melting point lay in the range of 264 to 267 °C.

Consider `CS(=O)(=O)c1ccc2nc(NC(=N)N)nc(-c3ccccc3)c2c1` (as salt: HCl) [Example 6, N-(6-methanesulfonyl-4-phenylquinazolin-2-yl)guanidine], for which the melting point lay within 180 to 185 °C. As to `C[S+]([O-])c1ccc2nc(NC(=N)N)nc(-c3ccccc3)c2c1` (stereo not shown) [Example 5, N-(6-methanesulfinyl-4-phenylquinazolin-2-yl)guanidine], the melting point was in the range of 175 to 180 °C.
